Data on 85 molecules can be found in PubChem BioAssay AID493130 (Broad Institute, 2011).

As a reminder, the AC50 is the concentration giving half of the maximal activity seen.

Each structure is given as a SMILES string. Inconclusive results are not listed. Activity calls are given as the source filed them.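 Rule for the calls: active = signal-lowering compounds whose fitted half-maximal concentration is at most ten times their highest tested dose; inconclusive = flat fit between -30 and -70%, or poor fit; inactive = flat within 30%, signal rising, or potency beyond limit.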

The target in the first experiment is POS-1 (Caenorhabditis elegans) binding to mex-3 RNA. Nature of the experiment: inhibitors of POS-1/mex-3 RNA binding, dose response, counter-screen for MEX-5 RNA-binding inhibitor project, biochemical, fluorescence polarization, cherry-picked samples, set 2 (AID 493130).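 Note: POS-1 as maltose binding protein fusion made in E. coli with FITC RNA.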 The following applies: POS-1/mex-3 RNA fluorescence polarization, 1 h. (In general: Counterscreens check selectivity or assay interference.)
For `O=C1CCNc2ccc(-c3ccccc3)cc21`, the AC50 was 1.34 µM.

Take `O=c1[nH]n2c(=O)c3c([nH]c2c1N=Nc1ccccc1)CCC3`: the AC50 was 0.677 µM.

Consider `CCNC(=S)N/N=C/c1sc(N2CCCCC2)nc1-c1cccs1`, for which the AC50 is 4.68 µM.

On to `O=C(c1ccc(Cl)cc1)C1C2C(=O)N(c3ccccc3)C(=O)C2C2CCCN21` (stereo not given), for which the AC50 is 5.95 µM.

For `O=[N+]([O-])c1ccccc1NC(=S)N/N=C/c1ccc(O)c(O)c1`, the AC50 was 5.42 µM.

In the case of `Cc1ccc(N2C(=O)NC(=O)/C(=C\c3ccc([N+](=O)[O-])o3)C2=O)cc1`, the AC50 was 7.36 µM.

On to `O=C1NC2=C(C(=O)CCC2)C(c2ccccc2[N+](=O)[O-])N1` (stereo not given), for which the AC50 was > 10 µM (inactive).

Take `CC(=O)Nc1ccc(S(=O)(=O)NNC(=O)C(=O)NNc2ccccn2)cc1`: the AC50 was > 10 µM (inactive).

Regarding `Cc1ccc(C)n1-c1ccccc1N`, the AC50 is 5.78 µM.

Consider `CCc1cc[n+](-c2nc3ccccc3nc2[N-]S(=O)(=O)c2ccc(Br)s2)cc1`, for which the AC50 was 1.25 µM.

`CN1CC=C2C(C#N)=C(N)C(C#N)(C#N)[C@H](c3cccs3)[C@H]2C1`: the AC50 is 6.12 µM.

For the molecule `CC1C(=O)NN=C1C(=O)N/N=C\c1ccc(O)cc1O` (stereo not given), the AC50 is 9.42 µM.

In the case of `O=c1[nH]c(-[n+]2ccccc2)c(/C=N/NC([S-])=Nc2ccccc2)s1`, the half-maximal activity concentration (AC50) is 5.9 µM.

As to `CN(CCC#N)C(=O)COC(=O)c1c2c(nc3ccccc13)/C(=C/c1ccco1)CC2`, the AC50 was > 10 µM (inactive).

Consider `Cc1cc(C)c2c(c1)NC(C(=O)O)C1CC=CC21` (stereo not given), for which the half-maximal activity concentration (AC50) was 6.96 µM.

With `CC1=C(C#N)C(=O)N(C2CCS(=O)(=O)C2)C(=O)/C1=C\c1ccco1` (stereo not given), the AC50 is 3.66 µM.

Still in this experiment, the particulars now being: POS-1/mex-3 RNA fluorescence polarization, 1 h; at 10 µM (top of the series).
As for `COc1ccc(C[C@@H]2c3cc(O)c(OC)cc3CCN2C)cc1O`, the “activity change, negative = inhibition” value was “inactive”.

As for `CCN(CC(=O)Nc1ccc(NC(C)=O)cc1)Cc1c(O)ccc2cc(Br)ccc12`, the “activity change, negative = inhibition” value is “inactive”.

Consider `N#CC1=C(N)Oc2c(O)cc3ccccc3c2C1c1ccsc1` (stereo not given), for which the “activity change, negative = inhibition” value is “inactive”.

For `FC(F)(F)c1nc2cc3nc4ccccc4[nH]c3cc2n1`, the “activity change, negative = inhibition” value was “inactive”.

Consider `COc1ccc(-c2csc(Nc3ccc(S(N)(=O)=O)cc3)n2)cc1OC`, for which the “activity change, negative = inhibition” value is “inactive”.

As for `CC1(C)CC(=O)C2=C(C1)OC(N)=C(C#N)C2c1ccccc1[N+](=O)[O-]` (stereo not given), the “activity change, negative = inhibition” value is “inactive”.

For the molecule `O=[N+]([O-])c1ccc(/C=N/n2c(CO)nc3ccccc32)s1`, the “activity change, negative = inhibition” value was “inactive”.

`COCC1CCN(Cc2c(C(=O)N3CCN(C4CCCCC4)CC3)nc3ccccn23)C1` (stereo not given): the “activity change, negative = inhibition” value is “inactive”.

Take `NC(=S)N=Nc1c(O)[nH]c2cc(F)c(F)cc12`: the “activity change, negative = inhibition” value is “inactive”.

As for `Cc1ccc(-c2nc(C=Nc3ccccc3)c(O)o2)cc1`, the “activity change, negative = inhibition” value is “inactive”.

Regarding `Cc1cc(C)cc(N2C(=O)NC(=O)/C(=C/c3cccn3-c3ccc(Cl)cc3)C2=O)c1`, the “activity change, negative = inhibition” value was “inactive”.

As for `O=C(NNC(=O)c1ccc([N+](=O)[O-])o1)c1ccccc1`, the “activity change, negative = inhibition” value is “inactive”.

Regarding `Cc1cccc(C(=O)NNc2ncnc3c2cnn3C)c1`, the “activity change, negative = inhibition” value is “inactive”.

With `O=C(Nc1ccc(S(=O)(=O)Nc2nccs2)cc1)c1ccc(N2C(=O)c3ccccc3C2=O)cc1`, the “activity change, negative = inhibition” value is “inactive”.

Take `Cc1cc(/C=C2\C(=O)NC(=O)N(Cc3ccccc3)C2=O)c(C)n1-c1ccc(Cl)c(C(=O)O)c1`: the “activity change, negative = inhibition” value was “inactive”.

Consider `O=C(NNC(=O)c1ccccc1[N+](=O)[O-])c1ccco1`, for which the “activity change, negative = inhibition” value was “inactive”.

`Cc1ccc(NC(=O)CCC(=O)NNC(=S)Nc2ccccc2)c(C)c1`: the “activity change, negative = inhibition” value was “inactive”.

On to `COc1ccc(CC(=O)NNc2ncnc3c2cnn3C)cc1OC`, for which the “activity change, negative = inhibition” value was “inactive”.

Take `Cc1ccc2oc(=O)c(/C=C(\O)c3ccco3)nc2c1`: the “activity change, negative = inhibition” value is “inactive”.

Take `N=C1C(c2nc3ccccc3[nH]2)=C(O)CN1c1ccc(F)cc1`: the “activity change, negative = inhibition” value was “inactive”.

In the case of `CN(C)C(=O)Oc1ccc2c(c1)O/C(=C\c1ccccc1)C2=O`, the “activity change, negative = inhibition” value is “inactive”.

On to `O=C(O)CCC(=O)NNc1ncnc2ccccc12`, for which the “activity change, negative = inhibition” value is “inactive”.

As to `COc1cc2c(cc1O)CC1c3c(cc(O)c(OC)c3-2)CCN1C` (stereo not given), the “activity change, negative = inhibition” value is “inactive”.

As for `Cc1cc(C)c([C@@H]2C[C@H]3CN(C4CCCC4)C(=O)[C@]34CCCN24)c(-n2cccn2)c1`, the “activity change, negative = inhibition” value is “inactive”.

Regarding `O=C(O)c1ccc2c(c1)C(=O)/C(=C/c1ccccc1)C2=O`, the “activity change, negative = inhibition” value was “inactive”.

As to `Cc1ccc(S(=O)(=O)c2cc3c(=O)n4ccccc4nc3n(C)c2=N)cc1`, the “activity change, negative = inhibition” value was “inactive”.

As for `O=C(O)c1ccc(N2Cc3ccccc3C2)cc1O`, the “activity change, negative = inhibition” value is “inactive”.

For `COc1ccc2nc3ccccc3nc2c1NC(=O)c1ccc(Cl)cc1`, the “activity change, negative = inhibition” value is “inactive”.

`Nc1ccc2nc(CN3CCOCC3)[nH]c2c1`: the “activity change, negative = inhibition” value is “inactive”.

For the molecule `CC(=O)c1cc(NC(=O)c2ccc([N+](=O)[O-])cc2)c(=O)oc1C`, the “activity change, negative = inhibition” value was “inactive”.

Regarding `CN(C)c1ncnc2c1NC1=C(S2)C(=NCCCC(=O)O)CC(C)(C)C1`, the “activity change, negative = inhibition” value is “inactive”.

For the molecule `Cc1ccc(O)c(N=CC2=C(O)c3ccccc3C2=O)c1`, the “activity change, negative = inhibition” value was “inactive”.

Regarding `CC1=NN(C(N)=S)C(=O)C1N=Nc1cccc(Cl)c1C` (stereo not given), the “activity change, negative = inhibition” value is “inactive”.

Take `Cn1c(=O)n(C)c2cc(/C=N/N=C3/NC(=O)C(CC(=O)O)S3)ccc21` (stereo not given): the “activity change, negative = inhibition” value is “inactive”.

Regarding `Nc1nc(N)c2[nH]cnc2n1`, the “activity change, negative = inhibition” value was “inactive”.

With `COC(=O)c1ccccc1N=Nc1c(N)n[nH]c1N`, the “activity change, negative = inhibition” value is “inactive”.

On to `COc1ccc(N(CCC#N)C(=O)/C(C#N)=C/c2cccs2)cc1`, for which the “activity change, negative = inhibition” value is “inactive”.

In the case of `CN1CCc2c(sc(NC(=O)c3ccc(S(=O)(=O)N4CCCCCC4)cc3)c2C(N)=O)C1`, the “activity change, negative = inhibition” value is “inactive”.

Consider `COc1c(O)ccc(/C=C(\C#N)c2nc3ccccc3[nH]2)c1[N+](=O)[O-]`, for which the “activity change, negative = inhibition” value was “inactive”.

Regarding `N#CC(C(=O)NC1CC1)c1nc2ccccc2nc1N1CCN(C/C=C/c2ccccc2)CC1` (stereo not given), the “activity change, negative = inhibition” value was “inactive”.

As to `Cc1ccc2c(c1)-c1ccccc1S(=O)(=O)N2`, the “activity change, negative = inhibition” value is “inactive”.

Turning to `O=C(O)c1cc(-c2ccc(/C=c3\sc4nc5ccc(Br)cc5n4c3=O)o2)ccc1Cl`, the “activity change, negative = inhibition” value was “inactive”.

As to `Cc1c(Br)c(=O)oc2c(Br)c(O)c(O)cc12`, the “activity change, negative = inhibition” value is “inactive”.

On to `COc1ccc(N(CCC#N)C(=O)/C(C#N)=C\c2cccs2)cc1`, for which the “activity change, negative = inhibition” value is “inactive”.

As to `Cc1ccc(C(=O)NNc2ncnc3c2cnn3C)cc1`, the “activity change, negative = inhibition” value is “inactive”.

In the case of `CN(N=Nc1ccc([N+](=O)[O-])cc1)c1ccccc1`, the “activity change, negative = inhibition” value is “inactive”.

Turning to `Cc1c(-c2ccc(F)cc2)nc(N)c(C#N)c1-c1ccco1`, the “activity change, negative = inhibition” value is “inactive”.

As to `Cc1cc2ccccc2n1CCNC(=O)c1ccc(Br)o1`, the “activity change, negative = inhibition” value is “inactive”.

As to `O=C(NNc1ncnc2c1cnn2-c1ccc(F)cc1)c1ccco1`, the “activity change, negative = inhibition” value was “inactive”.

Turning to `CCCc1nc2ccccc2c(=O)n1/N=C/c1ccc(O)c(O)c1`, the “activity change, negative = inhibition” value is “inactive”.

On to `Cc1nc2ccc3nc(NC(=O)c4ccc5c(c4)OCCO5)sc3c2s1`, for which the “activity change, negative = inhibition” value is “inactive”.

As to `COc1ccccc1OCC(=O)NNC(=O)c1cnccn1`, the “activity change, negative = inhibition” value was “inactive”.

Consider `COC/C=C/C1=CC2=CC(=O)C(C)(O)C(=O)C2=CO1` (stereo not given), for which the “activity change, negative = inhibition” value was “inactive”.

Take `COc1ccc(/C=C2\CCCc3c2nc2ccc(C)cc2c3C(=O)O)cc1O`: the “activity change, negative = inhibition” value was “inactive”.

As for `COc1ccc(NS(=O)(=O)c2cccc(C(=O)NNC(=O)c3cc(S(N)(=O)=O)ccc3OC)c2)cc1`, the “activity change, negative = inhibition” value is “inactive”.

Turning to `Brc1ccc(-c2cn3nc4c(nc3n2)CCCC4)cc1`, the “activity change, negative = inhibition” value was “inactive”.

Take `C/C=C(\C)CN1CCC(n2nccc2NC(=O)CCCc2ccccc2)CC1`: the “activity change, negative = inhibition” value is “inactive”.

Consider `CCCCC1=CC2=C(c3ccco3)C(=O)C(C)(OC(=O)c3ccc(OC)cc3)C(=O)C2=CN1C(CO)CO` (stereo not given), for which the “activity change, negative = inhibition” value was “inactive”.

On to `O=S(=O)(Nc1ccc(O)c(NS(=O)(=O)c2ccccc2)c1)c1ccccc1`, for which the “activity change, negative = inhibition” value was “inactive”.

With `Oc1cccc(NC(=S)N=Nc2c(O)[nH]c3ccc(Br)cc23)c1`, the “activity change, negative = inhibition” value is “inactive”.

Turning to `Cc1cc(C)c[n+](-c2nc([O-])sc2C=O)c1`, the “activity change, negative = inhibition” value is “inactive”.

Regarding `COc1cc2c(cc1OC)[C@@H](Cc1ccc(OCCC#N)cc1)N(C)CC2`, the “activity change, negative = inhibition” value was “inactive”.

In the case of `CC(C)(C)CC(C)(C)NCC(O)COc1ccc2c(c1)CCC2` (stereo not given), the “activity change, negative = inhibition” value was “inactive”.

As for `COC(=O)c1ccccc1-c1ccc(C(c2c(C)[nH][nH]c2=O)c2c(C)[nH][nH]c2=O)o1`, the “activity change, negative = inhibition” value is “inactive”.

Take `COc1cccc2cc(-c3nc(-c4cccs4)cs3)c(=O)oc12`: the “activity change, negative = inhibition” value was “inactive”.

`CC1(C)NC(=O)NC2(C)NC(=O)NC(C)(C)C12` (stereo not given): the “activity change, negative = inhibition” value was “inactive”.

Consider `O=C(O)Cc1c[nH]c2cccc(O)c12`, for which the “activity change, negative = inhibition” value is “inactive”.

For `Fc1ccc(N=c2ssnc2Cl)c(F)c1`, the “activity change, negative = inhibition” value was “inactive”.

For `CN=c1scc(-c2ccco2)n1/N=C/c1ccc(O)c(O)c1`, the “activity change, negative = inhibition” value was “inactive”.
